# Assay results as given in PMC8540742, “New N-Substituted-1,2,4-triazole Derivatives of Pyrrolo[3,4-d]pyridazinone with Significant Anti-Inflammatory Activity—Design, Synthesis and Complementary In Vitro, Computational and Spectroscopic Studies” (International Journal of Molecular Sciences, 2021).
# Target: T1, bovine serum albumin (BSA) (Bos taurus, UniProt P02769)
# T1 construct: gene ALB; commercial native serum albumin (Sigma Aldrich, named for the FT-IR work), mature protein 583 residues, no tags
# Assay: intrinsic fluorescence quenching (ex […] nm)
# Type: binding
# Details: […] K, pH […] BSA; static quenching; n about […]; subdomain IIIA by site markers; double-log
# T1 sequence (P02769 25-607): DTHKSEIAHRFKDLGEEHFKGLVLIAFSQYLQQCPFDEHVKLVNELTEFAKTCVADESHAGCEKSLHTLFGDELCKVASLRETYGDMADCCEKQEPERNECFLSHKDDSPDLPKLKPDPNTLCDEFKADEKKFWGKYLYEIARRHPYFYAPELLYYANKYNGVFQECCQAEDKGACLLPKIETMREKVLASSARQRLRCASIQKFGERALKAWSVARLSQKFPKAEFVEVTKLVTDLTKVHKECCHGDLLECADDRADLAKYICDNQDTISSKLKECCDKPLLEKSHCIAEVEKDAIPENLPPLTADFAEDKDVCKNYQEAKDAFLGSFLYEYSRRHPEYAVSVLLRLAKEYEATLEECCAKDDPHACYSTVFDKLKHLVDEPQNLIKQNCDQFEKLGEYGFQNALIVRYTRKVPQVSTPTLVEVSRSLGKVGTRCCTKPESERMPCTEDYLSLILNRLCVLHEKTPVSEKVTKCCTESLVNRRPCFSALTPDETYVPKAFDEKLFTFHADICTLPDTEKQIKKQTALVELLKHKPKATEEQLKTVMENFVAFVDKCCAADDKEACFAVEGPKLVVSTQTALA
row,Binding / Kb × 10^4 [dm^3mol^-1],Compound
1,9.55 × 10^4 dm^3 mol^-1,"CCCCn1c(C)c2c(OCc3nn(CN4CCN(c5ccc(C)cc5)CC4)c(=S)n3-c3ccc(OC)cc3)nn(C)c(=O)c2c1C [6c, 6-butyl-1-[[4-(4-methoxyphenyl)-2-[[4-[(4-methyl)phenyl]piperazin-1-yl]methyl]-3-thioxo-2H-1,2,4-triazol-5-yl]methoxy]-3,5,7-trimethyl-pyrrolo[3,4-d]pyridazin-4-one]"
2,8.91 × 10^4 dm^3 mol^-1,"CCCCn1c(C)c2c(OCc3nn(CN4CCN(c5ccccc5)CC4)c(=S)n3C)nn(C)c(=O)c2c1C [4a, 6-butyl-3,5,7-trimethyl-1-[[4-methyl-2-[(4-phenylpiperazin-1-yl)methyl]-3-thioxo-2H-1,2,4-triazol-5-yl]methoxy]pyrrolo[3,4-d]pyridazin-4-one]"
3,9.33 × 10^4 dm^3 mol^-1,"CCCCn1c(C)c2c(OCc3nnc(SCC(=O)N4CCN(c5ccccc5)CC4)n3-c3ccc(OC)cc3)nn(C)c(=O)c2c1C [7c, 6-butyl-3,5,7-trimethyl-1-[[4-(4-methoxy)phenyl-3-[2-oxo-2-(4-phenylpiperazin-1-yl)ethyl]sulfanyl-2H-1,2,4-triazol-5-yl]methoxy]pyrrolo[3,4-d]pyridazin-4-one]"
4,9.33 × 10^4 dm^3 mol^-1,"CCCCn1c(C)c2c(OCc3nn(CN4CCN(c5cccc(C(F)(F)F)c5)CC4)c(=S)n3-c3ccc(OC)cc3)nn(C)c(=O)c2c1C [5c, 6-butyl-1-[[4-(4-methoxyphenyl)-2-[[4-[3-(trifluoromethyl)phenyl]piperazin-1-yl]methyl]-3-thioxo-2H-1,2,4-triazol-5-yl]methoxy]-3,5,7-trimethyl-pyrrolo[3,4-d]pyridazin-4-one]"
5,8.13 × 10^4 dm^3 mol^-1,"CCCCn1c(C)c2c(OCc3nn(CN4CCN(c5cccc(C(F)(F)F)c5)CC4)c(=S)n3C)nn(C)c(=O)c2c1C [5a, 6-butyl-3,5,7-trimethyl-1-[[4-methyl-2-[[4-[3-(trifluoromethyl)phenyl]piperazin-1-yl]methyl]-3-thioxo-2H-1,2,4-triazol-5-yl]methoxy]pyrrolo[3,4-d]pyridazin-4-one]"
6,4.90 × 10^4 dm^3 mol^-1,"CCCCn1c(C)c2c(OCc3nn(CN4CCN(c5ccc(C)cc5)CC4)c(=S)n3C)nn(C)c(=O)c2c1C [6a, 6-butyl-3,5,7-trimethyl-1-[[4-methyl-2-[[4-[(4-methyl)phenyl]piperazin-1-yl]methyl]-3-thioxo-2H-1,2,4-triazol-5-yl]methoxy]pyrrolo[3,4-d]pyridazin-4-one]"
7,6.61 × 10^4 dm^3 mol^-1,"CCCCn1c(C)c2c(OCc3nn(CN4CCN(c5ccccc5)CC4)c(=S)n3-c3ccccc3)nn(C)c(=O)c2c1C [4b, 6-butyl-3,5,7-trimethyl-1-[[4-phenyl-2-[(4-phenylpiperazin-1-yl)methyl]-3-thioxo-2H-1,2,4-triazol-5-yl]methoxy]pyrrolo[3,4-d]pyridazin-4-one]"
8,9.33 × 10^4 dm^3 mol^-1,"CCCCn1c(C)c2c(OCc3nnc(SCC(=O)N4CCN(c5ccccc5)CC4)n3-c3ccccc3)nn(C)c(=O)c2c1C [7b, 6-butyl-3,5,7-trimethyl-1-[[4-phenyl-3-[2-oxo-2-(4-phenylpiperazin-1-yl)ethyl]sulfanyl-2H-1,2,4-triazol-5-yl]methoxy]pyrrolo[3,4-d]pyridazin-4-one]"
9,4.68 × 10^4 dm^3 mol^-1,"CCCCn1c(C)c2c(OCc3nnc(SCC(=O)N4CCN(c5ccccc5)CC4)n3C)nn(C)c(=O)c2c1C [7a, 6-butyl-3,5,7-trimethyl-1-[[4-methyl-3-[2-oxo-2-(4-phenylpiperazin-1-yl)ethyl]sulfanyl-2H-1,2,4-triazol-5-yl]methoxy]pyrrolo[3,4-d]pyridazin-4-one]"
10,5.75 × 10^4 dm^3 mol^-1,"CCCCn1c(C)c2c(OCc3nn(CN4CCN(c5cccc(C(F)(F)F)c5)CC4)c(=S)n3-c3ccccc3)nn(C)c(=O)c2c1C [5b, 6-butyl-3,5,7-trimethyl-1-[[4-phenyl-2-[[4-[3-(trifluoromethyl)phenyl]piperazin-1-yl]methyl]-3-thioxo-2H-1,2,4-triazol-5-yl]methoxy]pyrrolo[3,4-d]pyridazin-4-one]"
11,8.13 × 10^4 dm^3 mol^-1,"CCCCn1c(C)c2c(OCc3nn(CN4CCN(c5ccc(C)cc5)CC4)c(=S)n3-c3ccccc3)nn(C)c(=O)c2c1C [6b, 6-butyl-3,5,7-trimethyl-1-[[4-phenyl-2-[[4-[(4-methyl)phenyl]piperazin-1-yl]methyl]-3-thioxo-2H-1,2,4-triazol-5-yl]methoxy]pyrrolo[3,4-d]pyridazin-4-one]"
